The source of these data is patent publication US8415393B2, “Anti-bacterial drug targeting of genome maintenance interfaces” (Wisconsin Alumni Research Foundation, priority 2007, dated 2013).

Data set [1] addresses Exonuclease I/SSB-Ct complex (Escherichia coli, UniProt P04995). The experiment in a line: Fluorescence polarization competition: inhibition of fluorescein-SSB C-terminal peptide binding to Exonuclease I (HTS and Ki determination). Here is the method:
Peptide binding assays were performed in solution, using the peptides from above, and Exonuclease I, in the absence or presence of various compounds. Different amounts of Exonuclease I (ExoI) were used in the peptide binding assays. […] Fluorescence polarization (FP) was measured at 25° C. in triplicate; the average FP value was plotted with standard deviation of the mean shown as error.
Concentrated Exonuclease I was dialyzed overnight into 2 liters dilution buffer (DB) (20 mM Tris pH 8.0 HCl, 100 mM NaCl, 1 mM MgCl2, and 1 mM Beta-Mercaptoethanol). […] After sitting at room temperature for 5 min, a liquid handling system was used to aliquot this solution into 384 well plates providing 30 microliters/well. One microliter of 1 mM compound was then added. The screened compounds were obtained from the ChemBridge DIVERSet library (ChemBridge Corporation, San Diego, Calif.), from the Maybridge HitFinder library (Thermo Fisher Scientific, Waltham, Mass.), from the ChemDiv library (Chemical Diversity Labs, San Diego, Calif.), or from the Known Bioactive Library—KBA01.
The FP (fluorescence polarization) values for each well were read using a (plate reader) 5 minutes after compound addition.
Increasing amounts of compound were titrated into peptide protein mixture until FP values were lowered to values given by only fluorescently labeled peptide alone. Ki values were determined using the Ki calculator for fluorescence-based competitive binding assays of Prof. Shaomeng Wang, University of Michigan (Nikolovska-Coleska et al., 2004, Anal. Biochem. 332: 261-273).
(Polarisation of emitted light reports the rotation of a fluorescent probe.)

Data set [2] has as its system E. coli 4213 (imp4213, compromised cell wall). The data set can be described thus: microbe, parasite or virus in culture. The data set is classed as cell-based. Particulars: Escherichia coli. Here is the method:
The compromised cell wall allows the chemicals to pass through it more readily.
(§1) 100 μL of LB containing E. coli 1655, E. coli 4213, or S. aureus at A ˜0.05 OD 600 was aliquoted in 96 well plates. One μL of compound in DMSO was added to final concentrations given. Plates were incubated at 37° C. with shaking at 250 RPM. Rate of growth was calculated by determining the average change in OD/hour that took place between hours 3 and 7 (log growth phase). The graphs shown herein are plots of this bacterial growth rate (change in OD/h) against inhibitor concentration in μM.

The subject of data set [3] is Staphylococcus aureus 12598. The experiment in a line: Bacterial growth assay in LB liquid media, S. aureus. It is filed as cell-based. The note with it: Staphylococcus aureus, 12598. Here is the method:
as §1

For the next data set, the system named is E. coli (imp4213). The experiment in a line: MIC on solid media, E. coli. The data set is classed as cell-based. Particulars: Escherichia coli, read-out: MIC (E. coli).
Another data set relates to B. subtilis. The experiment in a line: Growth on solid media (MIC; agar plates with compound), B. subtilis. The note with it: for MIC: solid media, B. subtilis; for Bactericidal for B. subtilis: Table 3 info column. The data set is classed as cell-based, Bacillus subtilis. Here is the method:
(§2) A number of the tested candidate compounds had profound inhibitory effects on bacterial growth. In addition, it was discovered that the identified drug compounds can slow the growth of a number of other Gram-positive bacterial species. For example, the growth of Bacillus subtilis and Enterococcus faecalis was inhibited when these bacteria were grown on agar plates containing 100 μM of either compound 9 or compound 10.

Data set [4] deals with HT-29 (human colorectal adenocarcinoma) cells. The data set can be described thus: Mammalian cell toxicity, CellTiter-Glo cell viability assay. It is filed as cell-based. How it is done: The toxicity of the identified antimicrobial candidate compounds was tested using human colorectal adenocarcinoma cells in vitro. […] The mammalian cells were tested using a CellTiter-Glo cell viability assay (Promega, Madison, Wis.).
(Cellular ATP, detected with luciferase, serves as a proxy for viable cell number.)

The subject of a further data set is red blood cells. The experiment in a line: In vitro hemolysis. The data set is classed as cell-based. Particulars: for % hemolysis at given concentration: 1 hour; for Hemolysis: Table 3, minimum concentration necessary to lyse red blood cells. How it is done: The identified small molecules were incubated with red blood cells to see what percentage of cells would lyse after 1 hour. Estimated hemolysis data are due to problem with reading absorbance, when the compound absorbs at the same wavelength as heme or if the compound precipitates. In such instances it is difficult to quantitate the absorbance readings; however, visual determination of how many cells have lysed can then be performed, which provides an estimate of cell lysis.

The next data set relates to Enterococcus faecalis. The experiment in a line: Growth on agar plates containing compound, Enterococcus faecalis. Particulars: 100 μM compound in agar. The data set is classed as cell-based. How it is done:
as §2

The subject of another data set is Deinococcus radiodurans. The data set can be described thus: Growth on agar plates containing compound, Deinococcus radiodurans. It is filed as cell-based. The note with it: tested in a similar manner (100 μM in agar). How it is done:
as §2

The target of data set [5] is T1, fluorescein-labeled SSB C-terminal peptide, fluorescein-WMDFDDDIPF (E. coli).
T1 construct: also called F-WT; F-SSB-Ct
T1 peptide: fluorescein-WMDFDDDIPF
The data set can be described thus: equilibrium fluorescence anisotropy.

[6] abbreviates: read-out: IC50 μM inhibitor, inhibition of E. coli growth.
Setting [7] is: read-out: IC(50) E. coli imp4213.
[8] abbreviates: Table 3, reduce growth 50% in liquid media, unit not given (Table 5 gives μM), read-out: IC(50) S. aureus.
The mark [9] stands for this setting: Table 5, read-out: IC50 μM inhibitor, inhibition of S. aureus growth.
Setting [10] is: compound listing, bacterial growth in LB, read-out: IC50 Staphylococcus aureus.
The mark [11] stands for this setting: HT-29, Table 3, unit inferred, read-out: IC(50) Human cell line.
[12] abbreviates: HT-29 cells, CellTiter-Glo, read-out: IC50.

What is called Ki is the equilibrium dissociation constant of an inhibitor or competing ligand from its target. By MIC is commonly meant the lowest concentration found to suppress growth.

Values after ≈ are worked out from the molar mass of the structure shown. Like-named read-outs stand apart in the source and are kept apart here. Where no end group is shown, it is not given here. fluorescein = fluorescein moiety attached to the N-terminus of the peptide (N-terminal fluorescein label) A value given as a limit tells only on which side of the number the result lay.

Chain of Exonuclease I/SSB-Ct complex (P04995 whole entry, one chain of several): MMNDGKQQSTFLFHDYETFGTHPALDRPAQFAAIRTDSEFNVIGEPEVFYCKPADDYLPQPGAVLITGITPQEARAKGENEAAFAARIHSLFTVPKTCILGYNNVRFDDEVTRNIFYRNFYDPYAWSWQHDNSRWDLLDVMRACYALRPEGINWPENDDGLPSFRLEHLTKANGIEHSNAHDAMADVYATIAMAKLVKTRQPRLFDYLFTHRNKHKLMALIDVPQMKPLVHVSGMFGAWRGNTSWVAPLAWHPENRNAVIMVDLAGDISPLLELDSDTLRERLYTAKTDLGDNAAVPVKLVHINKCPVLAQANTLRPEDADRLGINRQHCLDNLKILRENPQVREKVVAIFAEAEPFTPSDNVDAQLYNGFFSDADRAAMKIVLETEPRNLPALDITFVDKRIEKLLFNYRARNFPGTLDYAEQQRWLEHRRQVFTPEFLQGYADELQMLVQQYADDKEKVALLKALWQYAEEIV

For `O=C(O)C(Cc1ccccc1)N1C(=O)/C(=C/c2cccc(Br)c2)SC1=S` (stereo not drawn) [Compound 3, 2-[5-(3-bromobenzylidene)-4-oxo-2-thioxo-1,3-thiazolidin-3-yl]-3-phenylpropanoic acid], the Ki in data set [1] is 2.5 µM; in data set [1] (Ki estimates, Table 2) it was 2.5 µM; in [1] (Ki, compound listing), roughly 2.5 µM. In addition, the IC50 in data set [2] (setting [6]) came out at 6 µM; in data set [2] (read-out: IC50 E. coli 4213), 5.5 µM; in data set [2] (setting [7]) it was 6 µM; in data set [3] (setting [8]) it was 9 µM; in data set [3] (setting [9]), 9 µM; in [3] (setting [10]), 10 µM. The IC50 in data set [4] (setting [11]) is 12 µM; in data set [4] (setting [12]) it was greater than 100 µM. In addition, the MIC with E. coli (imp4213) and in the data set on B. subtilis (Bacillus subtilis) was 3.6 µg/mL (≈ 8.03 µM) each time. The “Bactericidal for B. subtilis” value in the data set with B. subtilis is on record as “Compound 3; also called BOTP. Came from original Maybridge HTS collection. Bactericidal for B. subtilis”. Also, the “% hemolysis at given concentration” value in the data set with red blood cells (100 μM) amounted to 20% 100. Further, in the data set on red blood cells, the Hemolysis was roughly 100 µM.
Take `CC(C)(C)C1=NN(c2nc3ccc(Cl)cc3s2)C(=O)C1` [Compound 9, 3-(tert-butyl)-1-(6-chloro-1,3-benzothiazol-2-yl)-4,5-dihydro-1H-pyrazol-5-one]: the Ki in data set [1] is 0.8 µM; in data set [1] (Ki estimates, Table 2), 2.2 µM; in [1] (Ki, compound listing), roughly 0.773 µM. Besides, the IC50 is 6 µM in data set [2] (setting [6]); 6 µM in data set [2] (read-out: IC50 E. coli 4213); 6 µM in [2] (setting [7]); 6 µM in data set [3] (setting [8]); 6 µM in data set [3] (setting [9]); 5.5 µM in data set [3] (setting [10]). In addition, the IC50 is greater than 100 µM in [4] (setting [11]) and 38 µM in [4] (setting [12]). Further, the MIC in the data set on E. coli (imp4213) was 9 µg/mL (≈ 29.2 µM); in the data set on B. subtilis (Bacillus subtilis) it was 6.2 µg/mL (≈ 20.1 µM). The “growth on agar plates” value with B. subtilis (100 μM compound in agar, Bacillus subtilis) was “inhibited”; in the data set on Enterococcus faecalis, “inhibited”; in the data set on Deinococcus radiodurans, “inhibited”. For the same molecule, in the data set on red blood cells (>800 μM), the “% hemolysis at given concentration” value came out at 0% >800. The Hemolysis with red blood cells is greater than 800 µM.
With `CC(/C=C1\SC(=S)N(C(C(=O)O)c2ccccc2)C1=O)=C\c1ccccc1` (stereo not drawn) [Compound 8, [5-(2-methyl-3-phenyl-2-propen-1-ylidene)-4-oxo-2-thioxo-1,3-thiazolidin-3-yl](phenyl)acetic acid], the Ki in data set [1] was 4 µM; in data set [1] (Ki estimates, Table 2), 4 µM; in data set [1] (Ki, compound listing) it was roughly 4 µM. The IC50 in data set [2] (setting [6]) was determined as 11 µM; in data set [2] (read-out: IC50 E. coli 4213), 11 µM; in [2] (setting [7]), 11 µM; in [3] (setting [8]), 29 µM; in data set [3] (setting [9]) it was 30 µM; in data set [3] (setting [10]) it was 29 µM. Further, the IC50 in data set [4] (setting [11]) and in data set [4] (setting [12]) was greater than 100 µM in each case. Further, the MIC in the data set on E. coli (imp4213) came to 4 µg/mL (≈ 10.1 µM); in the data set with B. subtilis (Bacillus subtilis) it was 6.3 µg/mL (≈ 15.9 µM). For the same molecule, the “Bactericidal for B. subtilis” value in the data set with B. subtilis is recorded as “Compound 8; also called MPTA. Came from original Maybridge HTS collection. Bactericidal for B. subtilis”. The results for the “% hemolysis at given concentration” value with red blood cells (200 μM) and in the data set with red blood cells (400 μM) were “estimated 0% 200” and “estimated 90% 400 uM”, respectively. In the data set with red blood cells, the Hemolysis is roughly 200 µM.

B1: ExoI Glu150 Ala variant (enzyme)
chain: MMNDGKQQSTFLFHDYETFGTHPALDRPAQFAAIRTDSEFNVIGEPEVFYCKPADDYLPQPGAVLITGITPQEARAKGENEAAFAARIHSLFTVPKTCILGYNNVRFDDEVTRNIFYRNFYDPYAWSWQHDNSRWDLLDVMRACYALRPAGINWPENDDGLPSFRLEHLTKANGIEHSNAHDAMADVYATIAMAKLVKTRQPRLFDYLFTHRNKHKLMALIDVPQMKPLVHVSGMFGAWRGNTSWVAPLAWHPENRNAVIMVDLAGDISPLLELDSDTLRERLYTAKTDLGDNAAVPVKLVHINKCPVLAQANTLRPEDADRLGINRQHCLDNLKILRENPQVREKVVAIFAEAEPFTPSDNVDAQLYNGFFSDADRAAMKIVLETEPRNLPALDITFVDKRIEKLLFNYRARNFPGTLDYAEQQRWLEHRRQVFTPEFLQGYADELQMLVQQYADDKEKVALLKALWQYAEEIV
notes: also called E150A; Glu150 variant
Regarding B1, the “fold enhanced binding relative to wild-type ExoI” value in data set [5] was roughly 2 fold.

B2: ExoI Glu318 Ala variant (enzyme)
chain: MMNDGKQQSTFLFHDYETFGTHPALDRPAQFAAIRTDSEFNVIGEPEVFYCKPADDYLPQPGAVLITGITPQEARAKGENEAAFAARIHSLFTVPKTCILGYNNVRFDDEVTRNIFYRNFYDPYAWSWQHDNSRWDLLDVMRACYALRPEGINWPENDDGLPSFRLEHLTKANGIEHSNAHDAMADVYATIAMAKLVKTRQPRLFDYLFTHRNKHKLMALIDVPQMKPLVHVSGMFGAWRGNTSWVAPLAWHPENRNAVIMVDLAGDISPLLELDSDTLRERLYTAKTDLGDNAAVPVKLVHINKCPVLAQANTLRPADADRLGINRQHCLDNLKILRENPQVREKVVAIFAEAEPFTPSDNVDAQLYNGFFSDADRAAMKIVLETEPRNLPALDITFVDKRIEKLLFNYRARNFPGTLDYAEQQRWLEHRRQVFTPEFLQGYADELQMLVQQYADDKEKVALLKALWQYAEEIV
notes: also called E318A; Glu318 variant
B2: the “fold enhanced binding relative to wild-type ExoI” value in data set [5] was roughly 2 fold.

B3: ExoI Lys227 Ala variant (enzyme)
chain: MMNDGKQQSTFLFHDYETFGTHPALDRPAQFAAIRTDSEFNVIGEPEVFYCKPADDYLPQPGAVLITGITPQEARAKGENEAAFAARIHSLFTVPKTCILGYNNVRFDDEVTRNIFYRNFYDPYAWSWQHDNSRWDLLDVMRACYALRPEGINWPENDDGLPSFRLEHLTKANGIEHSNAHDAMADVYATIAMAKLVKTRQPRLFDYLFTHRNKHKLMALIDVPQMAPLVHVSGMFGAWRGNTSWVAPLAWHPENRNAVIMVDLAGDISPLLELDSDTLRERLYTAKTDLGDNAAVPVKLVHINKCPVLAQANTLRPEDADRLGINRQHCLDNLKILRENPQVREKVVAIFAEAEPFTPSDNVDAQLYNGFFSDADRAAMKIVLETEPRNLPALDITFVDKRIEKLLFNYRARNFPGTLDYAEQQRWLEHRRQVFTPEFLQGYADELQMLVQQYADDKEKVALLKALWQYAEEIV
notes: basic ridge variant; also called K227A; Lys227 variant
B3 had a fold binding defect in data set [5] of 7 fold.
